Columns and labels:
[1] = biological target: human JAK2 (a.a. 828-1132) (Homo sapiens (Human), UniProt O60674); test: In vitro JAK kinase assay (HTRF), JAK2 versus JAK1; format: biochemical; settings: IC50 ratio, 1 mM ATP
Procedure: (§1) The catalytic activity of JAK1, JAK2, or JAK3 was assayed by measuring the phosphorylation of a biotinylated peptide. The phosphorylated peptide was detected by homogenous time resolved fluorescence (HTRF). […] Reactions are carried out at room temperature for 1 hour and then stopped with 20 μL 45 mM EDTA, 300 nM SA-APC, 6 nM Eu-Py20 in assay buffer (Perkin Elmer, Boston, Mass.). Binding to the Europium labeled antibody takes place for 40 minutes and HTRF signal was measured on a Fusion plate reader (Perkin Elmer, Boston, Mass.).

[2] = biological target: human JAK1 (a.a. 837-1142) (Homo sapiens, UniProt P23458); test: In vitro JAK kinase assay (HTRF), JAK1; format: biochemical; settings: 1 mM ATP
Procedure: as §1

human JAK2 (a.a. 828-1132), sequence (O60674 828-1132): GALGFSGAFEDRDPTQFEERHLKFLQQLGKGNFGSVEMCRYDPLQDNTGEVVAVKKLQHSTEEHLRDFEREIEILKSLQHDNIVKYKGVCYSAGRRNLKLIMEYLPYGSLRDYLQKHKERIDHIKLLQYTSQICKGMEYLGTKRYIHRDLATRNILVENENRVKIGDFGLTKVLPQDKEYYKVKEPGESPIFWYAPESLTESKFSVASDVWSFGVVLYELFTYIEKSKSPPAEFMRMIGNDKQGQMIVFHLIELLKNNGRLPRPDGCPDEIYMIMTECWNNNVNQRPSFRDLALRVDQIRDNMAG

N#CCC(C1CCN(c2cccc(Cl)n2)C1)n1cc(-c2ncnc3[nH]ccc23)cn1 (single isomer, unassigned) [Compound 6, 3-[1-(6-chloropyridin-2-yl)pyrrolidin-3-yl]-3-[4-(7H-pyrrolo[2,3-d]pyrimidin-4-yl)-1H-pyrazol-1-yl]propanenitrile]
JAK2/JAK1 [1]: >10
IC50 [2]: < 10 nM

N#CCC1(n2cc(-c3ncnc4[nH]ccc34)cn2)CN(C2CCN(C(=O)Nc3ccc(F)cc3C(F)(F)F)CC2)C1 [Compound 2, 4-{3-(Cyanomethyl)-3-[4-(7H-pyrrolo[2,3-d]pyrimidin-4-yl)-1H-pyrazol-1-yl]azetidin-1-yl}-N-[4-fluoro-2-(trifluoromethyl)phenyl] piperidine-1-carboxamide]
JAK2/JAK1 [1]: >10
IC50 [2]: < 10 nM

N#CCC1(n2cc(-c3ncnc4[nH]ccc34)cn2)CN(C2CCN(C(=O)c3ccnc(C(F)(F)F)n3)CC2)C1 [Compound 3, [3-[4-(7H-pyrrolo[2,3-d]pyrimidin-4-yl)-1H-pyrazol-1-yl]-1-(1-{[2-(trifluoromethyl)pyrimidin-4-yl]carbonyl}piperidin-4-yl)azetidin-3-yl]acetonitrile]
JAK2/JAK1 [1]: >10
IC50 [2]: < 10 nM

C[C@@H](O)c1nc2cnc3ccsc3c2n1[C@H]1CC[C@H](CC#N)OC1 [Compound 5, ((2R,5S)-5-{2-[(1R)-1-hydroxyethyl]-1H-imidazo[4,5-d]thieno[3,2-b]pyridin-1-yl}tetrahydro-2H-pyran-2-yl)acetonitrile]
JAK2/JAK1 [1]: >10
IC50 [2]: < 100 nM

N#CCC(C1CCN(c2nc3cccnc3o2)C1)n1cc(-c2ncnc3[nH]ccc23)cn1 (stereo not drawn) [Compound 7, 3-(1-[1,3]oxazolo[5,4-b]pyridin-2-ylpyrrolidin-3-yl)-3-[4-(7H-pyrrolo[2,3-d]pyrimidin-4-yl)-1H-pyrazol-1-yl]propanenitrile]
JAK2/JAK1 [1]: >10
IC50 [2]: < 10 nM

N#CCC(CN1CCN(C(=O)c2ccc(C#N)cc2F)CC1)n1cc(-c2ncnc3[nH]ccc23)cn1 (stereo not drawn) [Compound 8, 4-[(4-{3-cyano-2-[4-(7H-pyrrolo[2,3-d]pyrimidin-4-yl)-1H-pyrazol-1-yl]propyl}piperazin-1-yl)carbonyl]-3-fluorobenzonitrile]
JAK2/JAK1 [1]: >10
IC50 [2]: < 10 nM

N#CCC(CN1CCN(C(=O)c2ccc(C#N)cc2F)CC1)n1ccc(-c2ncnc3[nH]ccc23)c1 (stereo not drawn) [Compound 9, 4-[(4-{3-cyano-2-[3-(7H-pyrrolo[2,3-d]pyrimidin-4-yl)-1H-pyrrol-1-yl]propyl}piperazin-1-yl)carbonyl]-3-fluorobenzonitrile]
JAK2/JAK1 [1]: >10
IC50 [2]: < 10 nM

N#CC[C@]1(n2cc(-c3ncnc4[nH]ccc34)cn2)C[C@H](N2CCN(C(=O)c3ccnc(C(F)(F)F)n3)CC2)C1 [Compound 10, [trans-1-[4-(7H-pyrrolo[2,3-d]pyrimidin-4-yl)-1H-pyrazol-1-yl]-3-(4-{[2-(trifluoromethyl)pyrimidin-4-yl]carbonyl}piperazin-1-yl)cyclobutyl]acetonitrile]
JAK2/JAK1 [1]: >10
IC50 [2]: < 10 nM

N#CC[C@]1(n2cc(-c3ncnc4[nH]ccc34)cn2)C[C@H](N2CCC(Oc3cc(CN4CC(O)C4)cc(C(F)(F)F)n3)CC2)C1 [Compound 11, {trans-3-(4-{[4-[(3-hydroxyazetidin-1-yl)methyl]-6-(trifluoromethyl)pyridin-2-yl]oxy}piperidin-1-yl)-1-[4-(7H-pyrrolo[2,3-d]pyrimidin-4-yl)-1H-pyrazol-1-yl]cyclobutyl}acetonitrile]
JAK2/JAK1 [1]: >10
IC50 [2]: < 10 nM

N#CC[C@]1(n2cc(-c3ncnc4[nH]ccc34)cn2)C[C@H](N2CCC(Oc3cc(CN4CCC[C@H]4CO)cc(C(F)(F)F)n3)CC2)C1 [Compound 12, {trans-3-(4-{[4-{[(2S)-2-(hydroxymethyl)pyrrolidin-1-yl]methyl}-6-(trifluoromethyl)pyridin-2-yl]oxy}piperidin-1-yl)-1-[4-(7H-pyrrolo[2,3-d]pyrimidin-4-yl)-1H-pyrazol-1-yl]cyclobutyl}acetonitrile]
JAK2/JAK1 [1]: >10
IC50 [2]: < 10 nM

N#CC[C@]1(n2cc(-c3ncnc4[nH]ccc34)cn2)C[C@H](N2CCC(Oc3cc(CN4CCC[C@@H]4CO)cc(C(F)(F)F)n3)CC2)C1 [Compound 13, {trans-3-(4-{[4-{[(2R)-2-(hydroxymethyl)pyrrolidin-1-yl]methyl}-6-(trifluoromethyl)pyridin-2-yl]oxy}piperidin-1-yl)-1-[4-(7H-pyrrolo[2,3-d]pyrimidin-4-yl)-1H-pyrazol-1-yl]cyclobutyl}acetonitrile]
JAK2/JAK1 [1]: >10
IC50 [2]: < 10 nM

C[C@H](NC(=O)c1cc(F)c(N2CC(CC#N)(n3cc(-c4ncnc5[nH]ccc45)cn3)C2)cc1F)C(F)(F)F [Compound 16, 4-{3-(cyanomethyl)-3-[4-(7H-pyrrolo[2,3-d]pyrimidin-4-yl)-1H-pyrazol-1-yl]azetidin-1-yl}-2,5-difluoro-N-[(1S)-2,2,2-trifluoro-1-methylethyl]benzamide]
JAK2/JAK1 [1]: >10
IC50 [2]: < 10 nM

N#CCC1(n2cc(-c3ncnc4[nH]ccc34)cn2)CN([C@H]2CC[C@@H](Oc3cc(CCO)nc(C(F)(F)F)n3)CC2)C1 [Compound 18, {1-(cis-4-{[6-(2-hydroxyethyl)-2-(trifluoromethyl)pyrimidin-4-yl]oxy}cyclohexyl)-3-[4-(7H-pyrrolo[2,3-d]pyrimidin-4-yl)-1H-pyrazol-1-yl]azetidin-3-yl}acetonitrile]
JAK2/JAK1 [1]: >10
IC50 [2]: < 10 nM

CCNCc1cc(O[C@H]2CC[C@@H](N3CC(CC#N)(n4cc(-c5ncnc6[nH]ccc56)cn4)C3)CC2)nc(C(F)(F)F)c1 [Compound 19, {1-(cis--4{[4-[(ethylamino)methyl]-6-(trifluoromethyl)pyridin-2-yl]oxy}cyclohexyl)-3-[4-(7H-pyrrolo[2,3-d]pyrimidin-4-yl)-1H-pyrazol-1-yl]azetidin-3-yl}acetonitrile]
JAK2/JAK1 [1]: >10
IC50 [2]: < 10 nM

CC(C)(O)c1cc(O[C@H]2CC[C@@H](N3CC(CC#N)(n4cc(-c5ncnc6[nH]ccc56)cn4)C3)CC2)nc(C(F)(F)F)c1 [Compound 20, {1-(cis-4-{[4-(1-hydroxy-1-methylethyl)-6-(trifluoromethyl)pyridin-2-yl]oxy}cyclohexyl)-3-[4-(7H-pyrrolo[2,3-d]pyrimidin-4-yl)-1H-pyrazol-1-yl]azetidin-3-yl}acetonitrile]
JAK2/JAK1 [1]: >10
IC50 [2]: < 10 nM

N#CCC1(n2cc(-c3ncnc4[nH]ccc34)cn2)CN([C@H]2CC[C@@H](Oc3cc(CN4CC[C@@H](O)C4)cc(C(F)(F)F)n3)CC2)C1 [Compound 21, {1-(cis-4-{[4-{[(3R)-3-hydroxypyrrolidin-1-yl]methyl}-6-(trifluoromethyl)pyridin-2-yl]oxy}cyclohexyl)-3-[4-(7H-pyrrolo[2,3-d]pyrimidin-4-yl)-1H-pyrazol-1-yl]azetidin-3-yl}acetonitrile]
JAK2/JAK1 [1]: >10
IC50 [2]: < 10 nM

N#CCC1(n2cc(-c3ncnc4[nH]ccc34)cn2)CN([C@H]2CC[C@@H](Oc3cc(CN4CC[C@H](O)C4)cc(C(F)(F)F)n3)CC2)C1 [Compound 22, {1-(cis-4-{[4-{[(3S)-3-hydroxypyrrolidin-1-yl]methyl}-6-(trifluoromethyl)pyridin-2-yl]oxy}cyclohexyl)-3-[4-(7H-pyrrolo[2,3-d]pyrimidin-4-yl)-1H-pyrazol-1-yl]azetidin-3-yl}acetonitrile]
JAK2/JAK1 [1]: >10
IC50 [2]: < 10 nM

C[C@@H](CO)NCc1cc(OC2CCN([C@H]3C[C@](CC#N)(n4cc(-c5ncnc6[nH]ccc56)cn4)C3)CC2)nc(C(F)(F)F)c1 [Compound 23, {trans-3-(4-{[4-({[(1S)-2-hydroxy-1-methylethyl]amino}methyl)-6-(trifluoromethyl)pyridin-2-yl]oxy}piperidin-1-yl)-1-[4-(7H-pyrrolo[2,3-d]pyrimidin-4-yl)-1H-pyrazol-1-yl]cyclobutyl}acetonitrile]
JAK2/JAK1 [1]: >10
IC50 [2]: < 10 nM

C[C@@H](O)CNCc1cc(OC2CCN([C@H]3C[C@](CC#N)(n4cc(-c5ncnc6[nH]ccc56)cn4)C3)CC2)nc(C(F)(F)F)c1 [Compound 24, {trans-3-(4-{[4-({[(2R)-2-hydroxypropyl]amino}methyl)-6-(trifluoromethyl)pyridin-2-yl]oxy}piperidin-1-yl)-1-[4-(7H-pyrrolo[2,3-d]pyrimidin-4-yl)-1H-pyrazol-1-yl]cyclobutyl}acetonitrile]
JAK2/JAK1 [1]: >10
IC50 [2]: < 10 nM

C[C@H](O)CNCc1cc(OC2CCN([C@H]3C[C@](CC#N)(n4cc(-c5ncnc6[nH]ccc56)cn4)C3)CC2)nc(C(F)(F)F)c1 [Compound 25, {trans-3-(4-{[4-({[(2S)-2-hydroxypropyl]amino}methyl)-6-(trifluoromethyl)pyridin-2-yl]oxy}piperidin-1-yl)-1-[4-(7H-pyrrolo[2,3-d]pyrimidin-4-yl)-1H-pyrazol-1-yl]cyclobutyl}acetonitrile]
JAK2/JAK1 [1]: >10
IC50 [2]: < 10 nM

N#CC[C@]1(n2cc(-c3ncnc4[nH]ccc34)cn2)C[C@H](N2CCC(Oc3cc(CCO)cc(C(F)(F)F)n3)CC2)C1 [Compound 26, {trans-3-(4-{[4-(2-hydroxyethyl)-6-(trifluoromethyl)pyridin-2-yl]oxy}piperidin-1-yl)-1-[4-(7H-pyrrolo[2,3-d]pyrimidin-4-yl)-1H-pyrazol-1-yl]cyclobutyl}acetonitrile]
JAK2/JAK1 [1]: >10
IC50 [2]: < 10 nM

Source: US11324749B2, “Combination therapy for treatment of hematological diseases” (Incyte Corporation, priority 2018, dated 2022)
